From patent US20250171460A1, “INDUCERS OF KLF2 AND METHODS OF USE THEREOF” (Riparian Pharmaceuticals, Inc., priority 2022, published 2025) come the findings set out here.

In the test the test system is primary human endothelial cells expressing luciferase under the control of the KLF2 promoter. Briefly: KLF2 Induction Cell Based Bioassay (luciferase reporter). The following applies: Homo sapiens, Endothelial cell. An excerpt: In endothelial cell culture media, a stock of the highest working concentration was made at no more than 1% DMSO vehicle. The working stock was then serially diluted 1:2 to make an 11-point concentration response curve. Included in the 96-well plate were 2 reference compounds with known potencies. A DMSO column was included in the 96-well plate at the highest percent vehicle of the working stocks. The 96-well cell culture plate of primary human endothelial cells expressing luciferase under the control of the KLF2 promoter was dosed with 200 μL per well of the dilution series as well as the DMSO control column. The assay plate was incubated at 37° C. for 24 hours. The supernatant was collected at 24 hours.
20 μL of the supernatant was then placed in a 384-well plate with optical duplicates. The corners of the plate received 20 μL of the Gaussia Luciferase Enzyme positive control, as well as 20 μL of the 50 μM Coelenterizine substrate. The plate read is then calibrated using the control, and read using a Molecular Devices SpectraMax iD5, providing luminescence in relative light units (RLU). The plate reader injected 20 μL of the 50 μM Coelenterizine substrate immediately before taking the RLU measurement for each well.
The sample signals were then normalized to the average signal of the DMSO column, as well as to the maximum signal of one of the reference compounds, as shown in the equations below: […]
The EC50 of each compound is then defined as when the concentration response curve passes 0.5.
Background: In a reporter assay the amount or activity of a reporter protein is the signal.

Setting [1] is: 24 h, KLF2 promoter luciferase, 24 hours, 11-point concentration response, read-out: Activity Range (EC50).
The mark [2] stands for this setting: Bioactivity of stereoisomers: R isomer, read-out: Bioactivity Bucket, R.

Read-outs that look alike come from different tables or passages of the source.

Turning to `COCCN1C(=O)c2oc3ccccc3c2OCC1(C)C(=O)NCc1c(OC)cccc1C(N)=O` (centres unmarked) [Example 26], the EC50 under setting [1] was 501 to 5000 nM.

For the compound `COCCN1C(=O)c2oc3ccccc3c2OCC1(C)C(=O)NCc1c(OC)cccc1C(=O)OC` (centres unmarked) [Example 27], the EC50 under setting [1] lay within 501 to 5000 nM.

Consider `COCCN1C(=O)c2oc3ccccc3c2OCC1(C)C(=O)NCc1c(C#N)cccc1OC` (centres unmarked) [Example 28], for which the EC50 under setting [1] lay within 501 to 5000 nM.

With `COCCN1C(=O)c2oc3ccccc3c2OCC1(C)C(=O)NCc1cc(Cl)c(F)cc1OC` (centres unmarked) [Example 29], the EC50 under setting [1] lay in the range of 501 to 5000 nM.

Regarding `COCCN1C(=O)c2oc3ccccc3c2OCC1(C)C(=O)NCc1c(OC)ccc2ccncc12` (centres unmarked) [Example 30], the EC50 under setting [1] lay in the range of 501 to 5000 nM.

Take `COCCN1C(=O)c2oc3ccccc3c2OCC1(C)C(=O)NCc1cc2ccccc2cc1OC` (centres unmarked) [Example 31]: the EC50 under setting [1] lay in the range of 501 to 5000 nM.

Take `COCCN1C(=O)c2oc3ccccc3c2OCC1(C)C(=O)NCc1c(OC)ccc2ccccc12` (centres unmarked) [Example 32]: under setting [1], the EC50 was 501 to 5000 nM.

Take `COCCN1C(=O)c2oc3ccccc3c2OCC1(C)C(=O)NCc1c(OC)cccc1OC` (centres unmarked) [Example 33]: the EC50 under setting [1] was 501 to 5000 nM.

Consider `COCCN1C(=O)c2oc3ccccc3c2OCC1(C)C(=O)NCc1cc(C)ccc1OC` (centres unmarked) [Example 34], for which, under setting [1], the EC50 fell in the range of 501 to 5000 nM.

Turning to `COCCN1C(=O)c2oc3ccccc3c2OCC1(C)C(=O)NCc1cc(OC)ccc1OC` (centres unmarked) [Example 35], the EC50 under setting [1] fell in the range of 501 to 5000 nM.

Consider `[2H]C([2H])([2H])Oc1ccccc1CNC(=O)C1(C)COc2c(oc3ccccc23)C(=O)N1CCOC` (centres unmarked) [Example 36], for which the EC50 under setting [1] lay within 501 to 5000 nM.

For `COCCN1C(=O)c2oc3ccccc3c2OCC1(C)C(=O)NCc1c(F)cccc1OC` (centres unmarked) [Example 37], the EC50 under setting [1] was 501 to 5000 nM.

On to `COCCN1C(=O)c2oc3ccccc3c2OCC1(C)C(=O)NCc1cc(F)ccc1OC` (centres unmarked) [Example 38], for which, under setting [1], the EC50 lay within 501 to 5000 nM.

On to `COCCN1C(=O)c2oc3ccccc3c2OCC1(C)C(=O)NCc1ccc(F)cc1OC` (centres unmarked) [Example 39], for which, under setting [1], the EC50 was 501 to 5000 nM.

Consider `COCCN1C(=O)c2oc3ccccc3c2OC[C@]1(C)C(=O)NCc1ccccc1OC` [Example 40], for which the EC50 under setting [1] is 501 to 5000 nM and the EC50 under setting [2] is 501 to 5000 nM.

For `COCCN1C(=O)c2oc3ccccc3c2OCC1(C)C(=O)NCc1ccc2ccccc2c1OC` (centres unmarked) [Example 41], the EC50 under setting [1] fell in the range of 501 to 5000 nM.

As to `COCCN1C(=O)c2oc3ccccc3c2OCC1(C)C(=O)NCc1ccc(C)cc1OC` (centres unmarked) [Example 43], under setting [1], the EC50 lay within 501 to 5000 nM.

For `COCCN1C(=O)c2oc3ccccc3c2OCC1(C)C(=O)NCc1c(Cl)cc(Cl)cc1OC` (centres unmarked) [Example 44], the EC50 under setting [1] lay within 501 to 5000 nM.

Consider `COCCN1C(=O)c2oc3ccccc3c2OCC1(C)C(=O)NCc1cc(F)c(Cl)cc1OC` (centres unmarked) [Example 45], for which the EC50 under setting [1] lay within 501 to 5000 nM.

With `COCCN1C(=O)c2oc3ccccc3c2OCC1(C)C(=O)NCc1c(OC)ccc(Cl)c1F` (centres unmarked) [Example 46], under setting [1], the EC50 fell in the range of 501 to 5000 nM.

Turning to `COCCN1C(=O)c2oc3ccccc3c2OCC1(C)C(=O)NCc1ncccc1OC` (centres unmarked) [Example 47], the EC50 under setting [1] is 501 to 5000 nM.

In the case of `COCCN1C(=O)c2oc3ccccc3c2OCC1(C)C(=O)NCc1c(Cl)cc(F)cc1OC` (centres unmarked) [Example 48], under setting [1], the EC50 is 501 to 5000 nM.

With `COCCN1C(=O)c2oc3cc(C(=O)NC4CCC4)ccc3c2OC[C@@]1(C)C(=O)NCc1ccccc1OC` [Example 49, (S)—N8-cyclobutyl-N3-(2-methoxybenzyl)-4-(2-methoxyethyl)-3-methyl-5-oxo-2,3,4,5-tetrahydrobenzofuro[2,3-f][1,4]oxazepine-3,8-dicarboxamide], the EC50 under setting [1] fell in the range of 501 to 5000 nM and the EC50 (Bioactivity of stereoisomers: S isomer, read-out: Bioactivity Bucket, S) lay in the range of 501 to 5000 nM.

With `COCCN1C(=O)c2oc3cc(C(=O)NC4CCC4)ccc3c2OC[C@]1(C)C(=O)NCc1ccccc1OC` [Example 50, (R)—N8-cyclobutyl-N3-(2-methoxybenzyl)-4-(2-methoxyethyl)-3-methyl-5-oxo-2,3,4,5-tetrahydrobenzofuro[2,3-f][1,4]oxazepine-3,8-dicarboxamide], the EC50 by setting is: under setting [1], 51 to 500 nM; under setting [2], at most 50 nM.

`COc1cccnc1CNC(=O)C1(C)COc2c(oc3cc(C(=O)NC4(C)COC4)ccc23)C(=O)N1CC1CC1` (centres unmarked) [Example 52]: the EC50 under setting [1] is 51 to 500 nM.

As for `COc1cccnc1CNC(=O)C1(C)COc2c(oc3cc(C(=O)NC4CCC4)ccc23)C(=O)N1CC1CC1` (centres unmarked) [Example 53], the EC50 under setting [1] was 51 to 500 nM.

For the compound `COc1cccnc1CNC(=O)C1(C)COc2c(oc3cc(C(=O)NC4CCC4)ccc23)C(=O)N1[C@H]1C[C@@H](OC)C1` (some centres unmarked) [Example 54], under setting [1], the EC50 fell in the range of 51 to 500 nM.

As for `COc1cccc(C#N)c1CNC(=O)C1(C)COc2c(oc3cc(C(=O)NC4(C)COC4)ccc23)C(=O)N1[C@H]1C[C@@H](OC)C1` (some centres unmarked) [Example 55], under setting [1], the EC50 lay in the range of 51 to 500 nM.

Turning to `COc1cccc(C#N)c1CNC(=O)C1(C)COc2c(oc3cc(C(=O)NC4CCC4)ccc23)C(=O)N1[C@H]1C[C@@H](OC)C1` (some centres unmarked) [Example 56], the EC50 under setting [1] is 51 to 500 nM.

With `COc1ccc(F)c(F)c1CNC(=O)C1(C)COc2c(oc3cc(C(=O)NC4CCC4)ccc23)C(=O)N1CC1CC1` (centres unmarked) [Example 58], the EC50 under setting [1] lay in the range of 51 to 500 nM.

Regarding `COc1cc(F)ccc1CNC(=O)C1(C)COc2c(oc3cc(C(=O)NC4(C)COC4)ccc23)C(=O)N1CC1CC1` (centres unmarked) [Example 59], the EC50 under setting [1] is 51 to 500 nM.

In the case of `COCCN1C(=O)c2oc3cc(C(=O)NC4CCC4)ccc3c2OCC1(C)C(=O)NCc1c(OC)ccc(F)c1F` (centres unmarked) [Example 61], the EC50 under setting [1] was 51 to 500 nM.

In the case of `COCCN1C(=O)c2oc3cc(C(=O)NC4(C)COC4)ccc3c2OCC1(C)C(=O)NCc1c(C#N)cccc1OC` (centres unmarked) [Example 62], the EC50 under setting [1] fell in the range of 51 to 500 nM.

As to `COCCN1C(=O)c2oc3cc(C(=O)NC4(C)COC4)ccc3c2OCC1(C)C(=O)NCc1c(OC)ccc(F)c1F` (centres unmarked) [Example 63], the EC50 under setting [1] is 51 to 500 nM.

For `COCCN1C(=O)c2oc3cc(C(=O)NC4(C)COC4)ccc3c2OCC1(C)C(=O)NCc1c(Cl)cccc1OC` (centres unmarked) [Example 64], the EC50 under setting [1] is 51 to 500 nM.

As for `COc1cccc(C#N)c1CNC(=O)C1(C)COc2c(oc3cc(C(=O)NC4(C)COC4)ccc23)C(=O)N1CC1CC1` (centres unmarked) [Example 65], the EC50 under setting [1] lay within 51 to 500 nM.

Turning to `COCCN1C(=O)c2oc3cc(C(=O)NC4(C)COC4)ccc3c2OCC1(C)C(=O)NCc1ncccc1OC` (centres unmarked) [Example 66], the EC50 under setting [1] lay within 501 to 5000 nM.

Regarding `COc1cccc(C#N)c1CNC(=O)C1(C)COc2c(oc3cc(C(=O)NC4CCC4)ccc23)C(=O)N1CC1CC1` (centres unmarked) [Example 67], under setting [1], the EC50 is 51 to 500 nM.

For the compound `COc1cccc(F)c1CNC(=O)C1(C)COc2c(oc3cc(C(=O)NC4(C)COC4)ccc23)C(=O)N1[C@H]1C[C@@H](OC)C1` (some centres unmarked) [Example 68], the EC50 under setting [1] fell in the range of 51 to 500 nM.

For `COc1cc(F)ccc1CNC(=O)C1(C)COc2c(oc3cc(C(=O)NC4(C)COC4)ccc23)C(=O)N1[C@H]1C[C@@H](OC)C1` (some centres unmarked) [Example 69], the EC50 under setting [1] was in the range of 51 to 500 nM.

Regarding `COc1ccc(F)cc1CNC(=O)C1(C)COc2c(oc3cc(C(=O)NC4(C)COC4)ccc23)C(=O)N1[C@H]1C[C@@H](OC)C1` (some centres unmarked) [Example 70], the EC50 under setting [1] was in the range of 51 to 500 nM.

Consider `COc1cc(F)ccc1CNC(=O)C1(C)COc2c(oc3cc(C(=O)NC4CCC4)ccc23)C(=O)N1[C@H]1C[C@@H](OC)C1` (some centres unmarked) [Example 71], for which the EC50 under setting [1] fell in the range of 51 to 500 nM.

Turning to `COc1cc(F)ccc1CNC(=O)C1(C)COc2c(oc3cc(C(=O)NC4CCC4)ccc23)C(=O)N1CC1CC1` (centres unmarked) [Example 72], the EC50 under setting [1] was in the range of 51 to 500 nM.

In the case of `COc1ccc(F)cc1CNC(=O)C1(C)COc2c(oc3cc(C(=O)NC4CCC4)ccc23)C(=O)N1[C@H]1C[C@@H](OC)C1` (some centres unmarked) [Example 73], under setting [1], the EC50 was in the range of 51 to 500 nM.
